Where two headings read alike, the source gives them in different places.

Data set [1] relates to A549. The data set can be described thus: In vitro cytotoxicity test of camptothecin payloads (CellTiter-Glo). In kind it is cell-based. Particulars: Homo sapiens, A549, 72 h. As for the experimental part:
(§1) Human lung adenocarcinoma cell line A549, NCI-N87, and SK-BR-3 were used to evaluate the cytotoxicity of small molecule fragment of the present invention. These cells were seeded to a 96-well plate at 2000 cells per well.
For orientation: ATP-based viability assays read luminescence as a measure of living cells.

The subject of data set [2] is NCI-N87. The description is as above. In kind it is cell-based. Particulars: Homo sapiens, NCI-N87, 72 h, read-out: NCI-N87 Cytotoxicity IC50 (nM). As to the method:
as §1

Data set [3] relates to SK-BR-3. The description is as above. In kind it is cell-based. Particulars: Homo sapiens, SK-BR-3, 72 h, read-out: SK-BR-3 Cytotoxicity IC50 (nM). As for the experimental part:
as §1

Data set [4] is described as follows: Rat PK study. In kind it is in vivo. As to conditions: Sprague-Dawley (SD). As to the method: Male SD rat, 180-200 g (BK lab. Animal Ltd.), 3 Rats/group. Blood samples were collected by orbital vein after IV administration 1 mg/kg dosage at 0.083, 0.5, 1, 2, 4, and 8 h into heparin-containing tubes, centrifugated at 10000 rpm for 3 min to get plasma. All samples were stored at −20° C. until they were sent to Suzhou Chengyao Biotech Co., Ltd. for analysis.

Where [5] appears, read: read-out: A549 Cytotoxicity IC50 (nM).
Setting [6] is: male, rat, in vivo, iv, 1 mg/kg.

For `CC[C@@]1(O)C(=O)OCc2c1cc1n(c2=O)Cc2c-1nc1ccc(N)c3c1c2C=CS3` [Example 1, (S)-4-amino-9-ethyl-9-hydroxy-12,15-dihydro-13H-pyrano[3′,4′:6,7]indolizino[1,2-b]thiopyrano[4,3,2-de]quinoline-10,13(9H)-dione], the IC50 (commonly the concentration at which inhibition is half-maximal) in data set [1] (setting [5]) was 10.7 nM. Also, in data set [2], the IC50 was 5.2 nM. Besides, the IC50 in data set [3] amounted to 38.6 nM. In addition, in data set [4] (setting [6]), the MRT inf came out at 12 min, the Vd turned out to be 0.9 L/kg and the half-life was 18 min.
`CC[C@@]1(O)C(=O)OCc2c1cc1n(c2=O)Cc2c-1nc1cc(F)c(C)c3c1c2[C@@H](NC(=O)CO)CC3` [drawing 111]: the MRT inf in data set [4] (in vivo, male SD rat, IV 1 mg/kg, plasma, read-out: MRT0-∞) is 30 min. The half-life in data set [4] (in vivo, male SD rat, IV 1 mg/kg, plasma, read-out: T1/2 (converted)) is 30 min. In addition, the Vd in data set [4] (in vivo, male SD rat, IV 1 mg/kg, plasma, read-out: Vss) is 20.6 L/kg.
For `CC[C@@]1(O)C(=O)OCc2c1cc1n(c2=O)Cc2c-1nc1cc(F)c(N)c3c1c2C=CS3` [Example 2, (S)-4-amino-9-ethyl-5-fluoro-9-hydroxy-12,15-dihydro-13H-pyrano[3′,4′:6,7]indolizino[1,2-b]thiopyrano[4,3,2-de]quinoline-10,13(9H)-dione], in data set [1] (setting [5]), the 50% inhibitory concentration (IC50) is 0.8 nM.
On to `CC[C@@]1(O)C(=O)OCc2c1cc1n(c2=O)Cc2c-1nc1cc(F)c(C)c3c1c2[C@@H](NC(=O)CO)CC3` [drawing 109], for which the figures for the IC50 in data set [1] (setting [5]), in data set [2] and in data set [3] were 163 nM, 26 nM and 802 nM, respectively.
Regarding `CC[C@@]1(O)C(=O)OCc2c1cc1n(c2=O)Cc2c-1nc1ccc(N)c3c1c2CCS3` [drawing 112], the MRT inf in data set [4] (male SD rat, IV 1 mg/kg, plasma, read-out: MRT0-∞) came out at 114 min. For the same compound, the half-life in data set [4] (male SD rat, IV 1 mg/kg, plasma, read-out: T1/2 (converted)) was 126 min. The Vd in data set [4] (male SD rat, IV 1 mg/kg, plasma, read-out: Vss) was found to be 7.2 L/kg.
As for `CC[C@@]1(O)C(=O)OCc2c1cc1n(c2=O)Cc2c-1nc1ccc(NC(=O)CO)c3c1c2C=CS3` [Example 13], the IC50 in data set [1] (setting [5]) turned out to be 26.4 nM; in data set [2] it was 21.7 nM; in data set [3] it was 52.3 nM.
As to `CC[C@@]1(O)C(=O)OCc2c1cc1n(c2=O)Cc2c-1nc1ccc(N)c3c1c2CCS3` [drawing 110], in data set [1] (cell viability after 3 days, 2000 cells per well, read-out: A549 Cytotoxicity IC50), the IC50 turned out to be 22.3 nM.
